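All cell lines were grown in 96-well plates and treated with compound for 48 hours. At the GI50, growth is halved.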 The source made the active and inactive calls. Rule as the data show it: active = GI50 up to about 1.1 µM and inactive = higher.
Columns and labels:
Test in all cases: DTP human tumour cell line panel, 48 h
786-0 = tested on: 786-0
SK-OV-3 = tested on: SK-OV-3
Hs-578T = tested on: Hs-578T
MDA-N = tested on: MDA-N
UACC-257 = tested on: UACC-257
LOX IMVI = tested on: LOX IMVI
OVCAR-5 = tested on: OVCAR-5
OVCAR-8 = tested on: OVCAR-8
NCI-H226 = tested on: NCI-H226
RXF 393 = tested on: RXF 393
COLO 205 = tested on: COLO 205
BT-549 = tested on: BT-549
M14 = tested on: M14
OVCAR-3 = tested on: OVCAR-3
UACC-62 = tested on: UACC-62
HOP-62 = tested on: HOP-62
SW-620 = tested on: SW-620
MDA-MB-231 = tested on: MDA-MB-231
SNB-75 = tested on: SNB-75
CAKI-1 = tested on: CAKI-1
SK-MEL-5 = tested on: SK-MEL-5
SK-MEL-28 = tested on: SK-MEL-28
HL-60 = tested on: HL-60
SF-268 = tested on: SF-268
IGROV-1 = tested on: IGROV-1
SNB-19 = tested on: SNB-19
OVCAR-4 = tested on: OVCAR-4
HOP-92 = tested on: HOP-92
KM12 = tested on: KM12
MOLT-4 = tested on: MOLT-4
HCC 2998 = tested on: HCC 2998
HCT-116 = tested on: HCT-116
T47D = tested on: T47D
NCI/ADR-RES = tested on: NCI/ADR-RES
SF-539 = tested on: SF-539
A498 = tested on: A498
U-251 = tested on: U-251
MCF7 = tested on: MCF7
NCI-H23 = tested on: NCI-H23
RPMI-8226 = tested on: RPMI-8226
K562 = tested on: K562
SK-MEL-2 = tested on: SK-MEL-2
HCT-15 = tested on: HCT-15
HT-29 = tested on: HT-29
Malme-3M = tested on: Malme-3M
SF-295 = tested on: SF-295
NCI-H522 = tested on: NCI-H522
A549 = tested on: A549
SR = tested on: SR
MDA-MB-435 = tested on: MDA-MB-435
UO-31 = tested on: UO-31
CCRF-CEM = tested on: CCRF-CEM
EKVX = tested on: EKVX
NCI-H460 = tested on: NCI-H460
DU-145 = tested on: DU-145
TK-10 = tested on: TK-10
ACHN = tested on: ACHN
PC-3 = tested on: PC-3
SN12C = tested on: SN12C

Compound: CC1(C)CCCC2CC2CCC(C)(C)C1=O (stereo not given)
- GI50 (786-0): 28.8 µM (inactive)
- GI50 (SK-OV-3): > 100 µM (inactive)
- GI50 (Hs-578T): > 100 µM (inactive)
- GI50 (MDA-N): 29.5 µM (inactive)
- GI50 (UACC-257): 39.5 µM (inactive)
- GI50 (LOX IMVI): 27.5 µM (inactive)
- GI50 (OVCAR-5): 46.5 µM (inactive)
- GI50 (OVCAR-8): 82.8 µM (inactive)
- GI50 (NCI-H226): 43.8 µM (inactive)
- GI50 (RXF 393): 27.4 µM (inactive)
- GI50 (COLO 205): 18.5 µM (inactive)
- GI50 (BT-549): > 100 µM (inactive)
- GI50 (M14): 42 µM (inactive)
- GI50 (OVCAR-3): 25.5 µM (inactive)
- GI50 (UACC-62): > 100 µM (inactive)
- GI50 (HOP-62): > 100 µM (inactive)
- GI50 (SW-620): > 100 µM (inactive)
- GI50 (MDA-MB-231): 82.4 µM (inactive)
- GI50 (SNB-75): 71 µM (inactive)
- GI50 (CAKI-1): > 100 µM (inactive)
- GI50 (SK-MEL-5): 42.9 µM (inactive)
- GI50 (SK-MEL-28): > 100 µM (inactive)
- GI50 (HL-60): 18.1 µM (inactive)
- GI50 (SF-268): > 100 µM (inactive)
- GI50 (IGROV-1): > 100 µM (inactive)
- GI50 (SNB-19): > 100 µM (inactive)
- GI50 (OVCAR-4): > 100 µM (inactive)
- GI50 (HOP-92): 74.8 µM (inactive)
- GI50 (KM12): 56.2 µM (inactive)
- GI50 (MOLT-4): 29.2 µM (inactive)
- GI50 (HCC 2998): 0.242 µM (active)
- GI50 (HCT-116): 78.2 µM (inactive)
- GI50 (T47D): > 100 µM (inactive)
- GI50 (NCI/ADR-RES): 28.8 µM (inactive)
- GI50 (SF-539): > 100 µM (inactive)
- GI50 (A498): > 100 µM (inactive)
- GI50 (U-251): 19.1 µM (inactive)
- GI50 (MCF7): 18.3 µM (inactive)
- GI50 (NCI-H23): > 100 µM (inactive)
- GI50 (RPMI-8226): 25.2 µM (inactive)
- GI50 (K562): 17.8 µM (inactive)
- GI50 (SK-MEL-2): 31.8 µM (inactive)
- GI50 (HCT-15): 71.9 µM
- GI50 (HT-29): 44.7 µM (inactive)
- GI50 (Malme-3M): 58.3 µM (inactive)
- GI50 (SF-295): > 100 µM (inactive)
- GI50 (NCI-H522): 37.5 µM (inactive)
- GI50 (A549): 42.4 µM (inactive)
- GI50 (SR): 10.8 µM (inactive)
- GI50 (MDA-MB-435): 39.5 µM (inactive)
- GI50 (UO-31): > 100 µM (inactive)
- GI50 (CCRF-CEM): 15.7 µM (inactive)
- GI50 (EKVX): 57.9 µM (inactive)
- GI50 (NCI-H460): 34.8 µM (inactive)
- GI50 (DU-145): > 100 µM (inactive)
- GI50 (TK-10): > 100 µM (inactive)
- GI50 (ACHN): > 100 µM (inactive)
- GI50 (PC-3): 51.1 µM (inactive)
- GI50 (SN12C): 71 µM (inactive)

Compound: CC1(C)CCC2=C(O1)/C(=N\Nc1ccc(S(N)(=O)=O)cc1)c1ccccc1C2=O
- GI50 (786-0): 7.5 µM (inactive)
- GI50 (SK-OV-3): 4.15 µM (inactive)
- GI50 (Hs-578T): 3.13 µM (inactive)
- GI50 (MDA-N): 2.84 µM (inactive)
- GI50 (UACC-257): 9.55 µM (inactive)
- GI50 (LOX IMVI): 4.41 µM (inactive)
- GI50 (OVCAR-5): 18.1 µM (inactive)
- GI50 (OVCAR-8): 10.6 µM (inactive)
- GI50 (NCI-H226): 4.99 µM (inactive)
- GI50 (RXF 393): 5.37 µM (inactive)
- GI50 (COLO 205): 20.3 µM (inactive)
- GI50 (BT-549): 13.1 µM (inactive)
- GI50 (M14): 16.1 µM (inactive)
- GI50 (OVCAR-3): 16.7 µM (inactive)
- GI50 (UACC-62): 18.2 µM (inactive)
- GI50 (HOP-62): 7.8 µM (inactive)
- GI50 (SW-620): 20.7 µM (inactive)
- GI50 (MDA-MB-231): 2.56 µM (inactive)
- GI50 (SNB-75): 4.38 µM (inactive)
- GI50 (CAKI-1): 14.8 µM (inactive)
- GI50 (SK-MEL-5): 1.81 µM (inactive)
- GI50 (SK-MEL-28): 18.7 µM (inactive)
- GI50 (HL-60): 15.1 µM (inactive)
- GI50 (SF-268): 11 µM (inactive)
- GI50 (IGROV-1): 14.2 µM (inactive)
- GI50 (SNB-19): 16.2 µM (inactive)
- GI50 (OVCAR-4): 5.81 µM (inactive)
- GI50 (HOP-92): 12.4 µM (inactive)
- GI50 (KM12): 10.5 µM (inactive)
- GI50 (MOLT-4): 27.4 µM (inactive)
- GI50 (HCC 2998): 5.25 µM (inactive)
- GI50 (HCT-116): 11.6 µM (inactive)
- GI50 (T47D): 15.6 µM (inactive)
- GI50 (NCI/ADR-RES): 20.2 µM (inactive)
- GI50 (SF-539): 10.4 µM (inactive)
- GI50 (A498): 2.37 µM (inactive)
- GI50 (U-251): 8.73 µM (inactive)
- GI50 (MCF7): 13.5 µM (inactive)
- GI50 (NCI-H23): 6.55 µM (inactive)
- GI50 (RPMI-8226): 27.6 µM (inactive)
- GI50 (K562): 28.4 µM (inactive)
- GI50 (SK-MEL-2): 11.9 µM (inactive)
- GI50 (HCT-15): 19.2 µM
- GI50 (HT-29): 14.7 µM (inactive)
- GI50 (Malme-3M): 3.3 µM (inactive)
- GI50 (SF-295): 11.8 µM (inactive)
- GI50 (NCI-H522): 12.1 µM (inactive)
- GI50 (A549): 14.6 µM (inactive)
- GI50 (SR): 5.61 µM (inactive)
- GI50 (MDA-MB-435): 10.7 µM (inactive)
- GI50 (UO-31): 18.2 µM (inactive)
- GI50 (CCRF-CEM): 11.3 µM (inactive)
- GI50 (EKVX): 16.7 µM (inactive)
- GI50 (NCI-H460): 12 µM (inactive)
- GI50 (DU-145): 12.5 µM (inactive)
- GI50 (TK-10): 14.5 µM (inactive)
- GI50 (ACHN): 19.8 µM (inactive)
- GI50 (PC-3): 13.6 µM (inactive)
- GI50 (SN12C): 11.2 µM (inactive)

Compound: CCSCCC(N)C(=O)O (stereo not given)
- GI50 (786-0): > 100 µM (inactive)
- GI50 (SK-OV-3): > 100 µM (inactive)
- GI50 (Hs-578T): > 100 µM (inactive)
- GI50 (MDA-N): > 100 µM (inactive)
- GI50 (UACC-257): > 100 µM (inactive)
- GI50 (LOX IMVI): > 100 µM (inactive)
- GI50 (OVCAR-5): > 100 µM (inactive)
- GI50 (OVCAR-8): > 100 µM (inactive)
- GI50 (NCI-H226): > 100 µM (inactive)
- GI50 (RXF 393): > 100 µM (inactive)
- GI50 (COLO 205): > 100 µM (inactive)
- GI50 (BT-549): > 100 µM (inactive)
- GI50 (M14): > 100 µM (inactive)
- GI50 (OVCAR-3): > 100 µM (inactive)
- GI50 (UACC-62): > 100 µM (inactive)
- GI50 (HOP-62): > 100 µM (inactive)
- GI50 (SW-620): > 100 µM (inactive)
- GI50 (MDA-MB-231): > 100 µM (inactive)
- GI50 (SNB-75): > 100 µM (inactive)
- GI50 (SK-MEL-5): > 100 µM (inactive)
- GI50 (SK-MEL-28): > 100 µM (inactive)
- GI50 (HL-60): > 100 µM (inactive)
- GI50 (SF-268): > 100 µM (inactive)
- GI50 (IGROV-1): > 100 µM (inactive)
- GI50 (SNB-19): > 100 µM (inactive)
- GI50 (OVCAR-4): > 100 µM (inactive)
- GI50 (HOP-92): > 100 µM (inactive)
- GI50 (KM12): > 100 µM (inactive)
- GI50 (MOLT-4): > 100 µM (inactive)
- GI50 (HCC 2998): > 100 µM (inactive)
- GI50 (HCT-116): > 100 µM (inactive)
- GI50 (T47D): > 100 µM (inactive)
- GI50 (NCI/ADR-RES): > 100 µM (inactive)
- GI50 (SF-539): > 100 µM (inactive)
- GI50 (A498): > 100 µM (inactive)
- GI50 (U-251): > 100 µM (inactive)
- GI50 (MCF7): > 100 µM (inactive)
- GI50 (NCI-H23): > 100 µM (inactive)
- GI50 (RPMI-8226): > 100 µM (inactive)
- GI50 (K562): > 100 µM (inactive)
- GI50 (SK-MEL-2): > 100 µM (inactive)
- GI50 (HCT-15): > 100 µM
- GI50 (HT-29): > 100 µM (inactive)
- GI50 (Malme-3M): > 100 µM (inactive)
- GI50 (SF-295): > 100 µM (inactive)
- GI50 (NCI-H522): > 100 µM (inactive)
- GI50 (A549): > 100 µM (inactive)
- GI50 (SR): > 100 µM (inactive)
- GI50 (MDA-MB-435): > 100 µM (inactive)
- GI50 (UO-31): > 100 µM (inactive)
- GI50 (EKVX): > 100 µM (inactive)
- GI50 (NCI-H460): > 100 µM (inactive)
- GI50 (DU-145): > 100 µM (inactive)
- GI50 (TK-10): > 100 µM (inactive)
- GI50 (ACHN): > 100 µM (inactive)
- GI50 (PC-3): > 100 µM (inactive)
- GI50 (SN12C): > 100 µM (inactive)

Source: ChEMBL document CHEMBL1201862, “PubChem BioAssay data set” (2004)
